Measurements: patent publication US11141450B2, “Compositions for reducing appetite and craving, increasing satiety, enhancing mood, and reducing stress” (NEKTIUM PHARMA, S.L., priority 2017, dated 2021)

What was measured:
Fisher 344 rats [1] = assay: EEG signals by telemetry from implanted electrodes in freely moving rats, first hour and fifth hour, Example 2; format: in vivo; conditions: first hour after administration and 5 hours after administration
Description: Products were provided to the test subjects orally (gavage).
EEG signals were recorded by telemetry from 4 implanted electrodes in the frontal cortex, hippocampus and striatum of freely moving rats from inside a totally copper shielded room.

Fisher 344 rats [2] = assay: EEG signals by telemetry from implanted electrodes in freely moving rats, Example 1; format: in vivo; conditions: first hour; all brain areas; p<0.01 relative to pre-drug baseline for the reference drugs; Rimonabant 5 mg/kg, Methylphenidate 1.0 mg/kg, Selegiline 1.5 mg/kg; FIG. 1
Excerpt: Fisher 344 rats (11 months of age and day-night converted, weight about 350-400 g, provided by Charles River Laboratories, D-97633, Sulzfeld) were used in a series of experiments on the effects of various herbal and pharmaceutical products on central nervous system activity. Products were provided to the test subjects orally (gavage).
The substances tested in this study included: • A control vehicle (0.9% NaCl); • Cyperus esculentus tuberous rhizome, ethanol extract, administered in an amount of 200 mg/kg to 7 rats; • Mango leaf, ethanol extract, administered in an amount of 50 mg/kg to 7 rats; • Cyperus Esculentus tuberous rhizome peel, ethanol extract, 150 mg/kg, plus Mango leaf extract, containing 60% of Mangiferin, 50 mg/kg, administered to 5 rats • Selegiline, administered in amount of 1.5 mg/kg to 8 rats • Methylphenidate administered in an amount of 1.0 mg/kg to 8 rats • Rimonabant administered in amount of 5 mg/kg to 6 rats
EEG signals were recorded by telemetry from 4 implanted electrodes in the frontal cortex, hippocampus and striatum of freely moving rats from inside a totally copper shielded room. Signals were collected in sweeps of 4-second duration and Fast Fourier transformed using a Hanning window. EEG signals were recorded over a period starting 5 minutes after administration of the test substances, and ending 65 minutes after administration of the test substances. Sampling frequency was 512 Hz. […] In an off-line procedure, the spectra were averaged to give longer periods for further analysis and data presentation. Spectral activity within the frontal cortex, hippocampus, striatum and reticular formation was recorded.

Question: With `O=c1c2cc(O)c(O)cc2oc2cc(O)c([C@@H]3O[C@H](CO)[C@@H](O)[C@H](O)[C@H]3O)c(O)c12` [pure Mangiferin, Mangiferin] as the molecule, how does the “impact on alpha-1 brain wave activity in the hippocampus” value (Fisher 344 rats [1]) read?
Answer: Its value is “Neither Tigernut extract nor Mango leaf extract (60% Mangiferin) or pure Mangiferin administered alone showed a significant decrease of alpha-1 brain wave activity”.

Question: With `COC(=O)C(c1ccccc1)C1CCCCN1` (stereo not shown) [Methylphenidate] as the molecule, how does the “effect on alpha-2 waves” value (Fisher 344 rats [2]) read?
Answer: Its value is “main significant effect”.

Question: `Cc1c(C(=O)NN2CCCCC2)nn(-c2ccc(Cl)cc2Cl)c1-c1ccc(Cl)cc1` [Rimonabant] was tested. Which “effect on alpha-2 waves” value (Fisher 344 rats [2]) did it give?
Answer: The value was “main significant effect”.

Question: `C#CCN(C)[C@H](C)Cc1ccccc1` [Selegiline] was tested. Which “effect on alpha-2 waves” value (Fisher 344 rats [2]) did it give?
Answer: The value was “main significant effect”.
